How the values were obtained:
Assay type in all cases: in vivo
[1] = test system: transplanted paddy-field rice; assay: Test Example 1: crop injury against transplanted paddy-field rice; settings: wettable powder applied 3 days after transplanting, judged after 25 days
Procedure, shortened: (§1)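 Herbicidal effect and crop injury were rated 0 (0-10% inhibition) to 5 (91-100%) 25 days after treatment. Water-diluted wettable powder was applied to flooded greenhouse pots 3 days after transplanting 2.2-leaf rice. The pots held seeded weeds and sprouted Cyperus serotinus tubers.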

barnyardgrass [2] = assay: Test Example 2: herbicidal effects (soil treatment); settings: dosage 5 kg/a; soil treatment the day after seeding; judged after 21 days
Description: (§2) Judgment Standard • 0: Growth inhibition rate; 0 to 10% • 1: Growth inhibition rate; 11 to 30% • 2: Growth inhibition rate; 31 to 50% • 3: Growth inhibition rate; 51 to 70% • 4: Growth inhibition rate; 71 to 90% • 5: Growth inhibition rate; 91 to 100%.
(§3) Upland soil was filled in 150 cm^2 pot, and seeds of barnyardgrass and indian mustard (Brassica juncea (L.) Czern. et Coss) were sowed, and grown in a greenhouse. At the next day of seeding, a predetermined chemical dosage of the wettable powder prepared in accordance with Preparation example 1 was diluted in water and applied to soil surface. After 21 days from the treatment, herbicidal effects were judged in accordance with the judgment standard of Test example 1, and the results were shown in Table 3.

[3] = test system: indian mustard (Brassica juncea (L.) Czern. et Coss); assay: as above; settings: dosage 5 kg/a; soil treatment the day after seeding; judged after 21 days
Description: as §2, §3

[4] = test system: annual broad-leaved weeds (Lindernia spp., Rotala indica); assay: Test Example 1: herbicidal effects, paddy-field pot test; settings: wettable powder applied 3 days after transplanting, judged after 25 days
Procedure, shortened: as §1

[5] = test system: barnyardgrass (Echinochloa oryzicola Vasing.); assay: as above; settings: wettable powder applied 3 days after transplanting, judged after 25 days
Procedure, shortened: as §1

Scirpus joncoides [6] = assay: as above; settings: wettable powder applied 3 days after transplanting, judged after 25 days
Procedure, shortened: as §1

Cyperus serotinus [7] = assay: as above; settings: wettable powder applied 3 days after transplanting, judged after 25 days
Procedure, shortened: as §1

[8] = test system: transplanted paddy-field rice; assay: Test Example 4: crop injury against transplanted paddy-field rice; settings: no second compound, after 25 days
Description: (§4) Paddy filed soil was filled in 1/5000 are Wagner pot, seeds of barnyardgrass (Echinochloa oryzicola Vasing.), Scirpus joncoides and annual broad-leaved weeds (Lindernia spp. and Rotala indica) which are awaken from dormancy were mixed at the surface layer of 1 cm. Also, tubers of Cyperus serotinus, Sagittaria pygmaea and Eleocharis kuroguwai which are awaken from dormancy were planted, and further seedlings of paddy-field rice at 2.2-leaf stage were transplanted and they were grown under the flooded condition in a greenhouse. After 3 days from the transplanting, a predetermined chemical dosage of the wettable powder prepared in accordance with Preparation example 5 was diluted with water, and applied to the pot. After 25 days, herbicidal effects and crop injury against transplanted paddy-field rice were judged according to the following judgment standard, and the results were shown in Table 5. Incidentally, “-” in the table means a composition containing no effective ingredient.
(§5) Judgment Standard • 0: Growth-inhibition rate; 0 to 15% • 1: Growth inhibition rate; 16 to 35% • 2: Growth inhibition rate; 36 to 55% • 3: Growth inhibition rate; 56 to 75% • 4: Growth inhibition rate; […] • 5: Growth inhibition rate; 96 to 100%.

[9] = test system: annual broad-leaved weeds (Lindernia spp. and Rotala indica); assay: Test Example 4: herbicidal effects of mixed wettable powder, paddy-field pot test; settings: no second compound, after 25 days
Description: as §4, §5

[10] = test system: barnyardgrass (Echinochloa oryzicola Vasing.); assay: as above; settings: no second compound, after 25 days
Description: as §4, §5

Eleocharis kuroguwai = assay: as above; settings: no second compound, after 25 days
Description: as §4, §5

Scirpus joncoides [11] = assay: as above; settings: no second compound, after 25 days
Description: as §4, §5

Sagittaria pygmaea = assay: as above; settings: no second compound, after 25 days
Description: as §4, §5

Cyperus serotinus [12] = assay: as above; settings: no second compound, after 25 days
Description: as §4, §5

velvetleaf = assay: Test Example 5: herbicidal effects, upland (soil treatment); settings: after 21 days
Description: (§6) Upland soil was filled in 150 cm^2 pot, and seeds of barnyardgrass, Cyperus esculentus L., velvetleaf, black nightshade, tall morningglory and corn were sowed, and grown in a greenhouse. At the next day of seeding, a predetermined chemical dosage of the wettable powder prepared in accordance with Preparation example 5 was diluted with water and applied to soil surface. After 21 days from the treatment, herbicidal effects and crop injury against corn were judged according to the following judgment standard, and the results were shown in Tables 6 to 8.
(§7) Judgment Standard • 0: Growth inhibition rate; 0 to 9% • 1: Growth inhibition rate; 10 to 19% • 2: Growth inhibition rate; 20 to 29% • 3: Growth inhibition rate; 30 to 39% • 4: Growth inhibition rate; 40 to 49% • 5: Growth inhibition rate; 50 to 59% • 6: Growth inhibition rate; 60 to 69% • 7: Growth inhibition rate; 70 to 79% • 8: Growth inhibition rate; 80 to 89% • 9: Growth inhibition rate; 90 to 98% • 10: Growth inhibition rate; 99 to 100%.

tall morningglory = assay: as above; settings: after 21 days
Description: as §6, §7

barnyardgrass [13] = assay: as above; settings: after 21 days
Description: as §6, §7

black nightshade = assay: as above; settings: after 21 days
Description: as §6, §7

| Compound | Crop injury against transplanted rice ([1]; chemical dosage 10 g/a) | Crop injury against transplanted rice ([1]; chemical dosage 20 g/a) | Herbicidal effects Barnyard-grass (barnyardgrass [2]) | Herbicidal effects indian mustard [3] | Herbicidal effects Broad leaf ([4]; chemical dosage 10 g/a) | Herbicidal effects Broad leaf ([4]; chemical dosage 20 g/a) | Herbicidal effects Barnyard grass ([5]; chemical dosage 10 g/a) | Herbicidal effects Barnyard grass ([5]; chemical dosage 20 g/a) | Herbicidal effects Scirpus joncoides (Scirpus joncoides [6]; chemical dosage 10 g/a) | Herbicidal effects Scirpus joncoides (Scirpus joncoides [6]; chemical dosage 20 g/a) | Herbicidal effects Cyperus serotinus (Cyperus serotinus [7]; chemical dosage 10 g/a) | Herbicidal effects Cyperus serotinus (Cyperus serotinus [7]; chemical dosage 20 g/a) | also measured |
| --- | --- | --- | --- | --- | --- | --- | --- | --- | --- | --- | --- | --- | --- |
| Cc1cccc(I)c1Oc1nnc(Cl)cc1O [Example 256] | 2 (Growth inhibition rate; 31 to 50%) | 3 (Growth inhibition rate; 51 to 70%) | 3 (Growth inhibition rate; 51 to 70%) | 5 (Growth inhibition rate; 91 to 100%) | 5 (Growth inhibition rate; 91 to 100%) | 5 (Growth inhibition rate; 91 to 100%) | 3 (Growth inhibition rate; 51 to 70%) | 4 (Growth inhibition rate; 71 to 90%) | 5 (Growth inhibition rate; 91 to 100%) | 5 (Growth inhibition rate; 91 to 100%) | 5 (Growth inhibition rate; 91 to 100%) | 5 (Growth inhibition rate; 91 to 100%) | – |
| Oc1cc(Cl)nnc1Oc1c(Cl)cccc1C1CC1 [Example 245] | 0 (Growth inhibition rate; 0 to 10%) | 0 (Growth inhibition rate; 0 to 10%) | 3 (Growth inhibition rate; 51 to 70%) | 5 (Growth inhibition rate; 91 to 100%) | 5 (Growth inhibition rate; 91 to 100%) | 5 (Growth inhibition rate; 91 to 100%) | 4 (Growth inhibition rate; 71 to 90%) | 4 (Growth inhibition rate; 71 to 90%) | 5 (Growth inhibition rate; 91 to 100%) | 5 (Growth inhibition rate; 91 to 100%) | 5 (Growth inhibition rate; 91 to 100%) | 5 (Growth inhibition rate; 91 to 100%) | Crop injury against transplanted rice ([8]; derivative 5 g/a): 0 (Growth-inhibition rate; 0 to 15%); Crop injury against transplanted rice ([8]; derivative 10 g/a): 0 (Growth-inhibition rate; 0 to 15%); Herbicidal effects Broad leaf ([9]; derivative 5 g/a): 5 (Growth inhibition rate; 96 to 100%); Herbicidal effects Broad leaf ([9]; derivative 10 g/a): 5 (Growth inhibition rate; 96 to 100%); Herbicidal effects Barnyard grass ([10]; derivative 5 g/a): 3 (Growth inhibition rate; 56 to 75%); Herbicidal effects Barnyard grass ([10]; derivative 10 g/a): 4 (Growth inhibition rate; 7.6 to 95%); Herbicidal effects Eleocharis kuroguwai (Eleocharis kuroguwai; derivative 5 g/a): 0 (Growth-inhibition rate; 0 to 15%); Herbicidal effects Eleocharis kuroguwai (Eleocharis kuroguwai; derivative 10 g/a): 1 (Growth inhibition rate; 16 to 35%); Herbicidal effects Scirpus joncoides (Scirpus joncoides [11]; derivative 5 g/a): 5 (Growth inhibition rate; 96 to 100%); Herbicidal effects Scirpus joncoides (Scirpus joncoides [11]; derivative 10 g/a): 5 (Growth inhibition rate; 96 to 100%); Herbicidal effects Sagittaria pygmaea (Sagittaria pygmaea; derivative 5 g/a): 4 (Growth inhibition rate; 7.6 to 95%); Herbicidal effects Sagittaria pygmaea (Sagittaria pygmaea; derivative 10 g/a): 5 (Growth inhibition rate; 96 to 100%); Herbicidal effects Cyperus serotinus (Cyperus serotinus [12]; derivative 5 g/a): 4 (Growth inhibition rate; 7.6 to 95%); Herbicidal effects Cyperus serotinus (Cyperus serotinus [12]; derivative 10 g/a): 5 (Growth inhibition rate; 96 to 100%) |
| Cc1ccc2ccoc2c1Oc1nnc(Cl)cc1O [Example 310] | 0 (Growth inhibition rate; 0 to 10%) | 0 (Growth inhibition rate; 0 to 10%) | 5 (Growth inhibition rate; 91 to 100%) | 5 (Growth inhibition rate; 91 to 100%) | 5 (Growth inhibition rate; 91 to 100%) | 5 (Growth inhibition rate; 91 to 100%) | 4 (Growth inhibition rate; 71 to 90%) | 5 (Growth inhibition rate; 91 to 100%) | 5 (Growth inhibition rate; 91 to 100%) | 5 (Growth inhibition rate; 91 to 100%) | 5 (Growth inhibition rate; 91 to 100%) | 5 (Growth inhibition rate; 91 to 100%) | – |
| Oc1cc(Cl)nnc1Oc1c(Br)ccc2ccoc12 [Example 309] | 2 (Growth inhibition rate; 31 to 50%) | 5 (Growth inhibition rate; 91 to 100%) | 5 (Growth inhibition rate; 91 to 100%) | 5 (Growth inhibition rate; 91 to 100%) | 5 (Growth inhibition rate; 91 to 100%) | 5 (Growth inhibition rate; 91 to 100%) | 4 (Growth inhibition rate; 71 to 90%) | 5 (Growth inhibition rate; 91 to 100%) | 5 (Growth inhibition rate; 91 to 100%) | 5 (Growth inhibition rate; 91 to 100%) | 5 (Growth inhibition rate; 91 to 100%) | 5 (Growth inhibition rate; 91 to 100%) | – |
| CS(=O)(=O)c1cc(C(F)(F)F)ccc1C(=O)c1cnoc1C1CC1 [Compound D, 5-cyclopropyl-1,2-oxazol-4-yl α,α,α-trifluoro-2-mesyl-p-tolyl ketone] | – | – | – | – | – | – | – | – | – | – | – | – | Herbicidal effects Velvetleaf (velvetleaf; D alone 6.3 g/ha): 6 (Growth inhibition rate; 60 to 69%); Herbicidal effects Velvetleaf (velvetleaf; D alone 12.5 g/ha): 7 (Growth inhibition rate; 70 to 79%); Herbicidal effects Velvetleaf (velvetleaf; D alone 25 g/ha): 9 (Growth inhibition rate; 90 to 98%); Herbicidal effects Tall Morningglory (tall morningglory; D alone 6.3 g/ha): 2 (Growth inhibition rate; 20 to 29%); Herbicidal effects Tall Morningglory (tall morningglory; D alone 12.5 g/ha): 0 (Growth inhibition rate; 0 to 9%); Herbicidal effects Tall Morningglory (tall morningglory; D alone 25 g/ha): 5 (Growth inhibition rate; 50 to 59%); Herbicidal effects Barnyard grass (barnyardgrass [13]; D alone 6.3 g/ha): 3 (Growth inhibition rate; 30 to 39%); Herbicidal effects Barnyard grass (barnyardgrass [13]; D alone 12.5 g/ha): 10 (Growth inhibition rate; 99 to 100%); Herbicidal effects Barnyard grass (barnyardgrass [13]; D alone 25 g/ha): 10 (Growth inhibition rate; 99 to 100%); Herbicidal effects Black Nightshade (black nightshade; D alone 6.3 g/ha): 5 (Growth inhibition rate; 50 to 59%); Herbicidal effects Black Nightshade (black nightshade; D alone 12.5 g/ha): 9 (Growth inhibition rate; 90 to 98%); Herbicidal effects Black Nightshade (black nightshade; D alone 25 g/ha): 9 (Growth inhibition rate; 90 to 98%) |

From patent US7964531B2, “3-phenoxy-4-pyridazinol derivatives and herbicidal composition containing the same” (Mitsui Chemicals Agro, Inc., priority 2001, dated 2011)
